Where two headings read alike, the source gives them in different places.
Key:
[1] = molecular target: JAK1 (Homo sapiens (Human), UniProt P23458); assay: Biochemical kinase assay (33P-ATP filter-binding), JAK1; details: read-out: IC50 JAK1
Source text: (§1) Biochemical Kinase Assay Protocol (JAK)
(§2) Reaction Procedure: • 1. […] Detected kinase activity by filter-binding method.

[2] = molecular target: JAK2 (Homo sapiens (Human), UniProt O60674); assay: Biochemical kinase assay (33P-ATP filter-binding), JAK2; details: read-out: IC50 JAK2
Source text: as §1, §2

[3] = test system: IL-4/pSTAT6; assay: Cytokine function assay IL-4/pSTAT6 in PBMC; assay type: cell-based
Description: (§3) Cytokine Function Assay Protocols for IL-4/pSTAT6 and GM-CSF/pSTAT5
IL-4/pSTAT6: • PBMC from a healthy donor was plated onto a 96 w plate. Compound was added and incubated for 1 hour (at 37° C.). After 1 hour, cells were stimulated with IL-4 for 15 minutes. Cells were fixed and stained with anti-pSTAT6 antibody. After staining, cells were read on a Beckman-Coulter CytoFLEX.

[4] = test system: GM-CSF/pSTAT5; assay: Cytokine function assay GM-CSF/pSTAT5 in lysed whole blood cells; assay type: cell-based; details: read-out: IC50 GM-CSF
Description: as §3
GM-CSF/pSTAT5: • Whole blood from a healthy donor was lysed to remove red blood cells. Cells were plated onto a 96 well plate. Compound was added and incubated for 1 hour (at 37° C.). After 1 hour, cells were stimulated with GM-CSF for 15 minutes. Cells were fixed and stained with anti-pSTAT5 antibody. After staining, cells were read on a Beckman-Coulter CytoFLEX.

[5] = test system: IL-31; assay: Cytokine function assay for IL-31 in DH82 cells; assay type: cell-based, canine; details: Canis lupus familiaris
Description: Cytokine Function Assay Protocol for IL-31
The protocol for the cytokine function assay for IL-31 is set forth below: • 1. […] After 24 hr, wash with 37° C. pre-warmed PBS (100 uL/well). • 3. Add serum-free MEM, 90 uL per well, 2 hr, 37° C. • 4. Add 10 uL 10×IL-31 (40, 10, 2.5 ug/mL) in duplicate, 5 min, 37° C. • 5. Remove medium, add 60 uL lysis buffer per well. Agitate on a plate shaker (˜350 rpm) for 10 min at RT. • 6. […] Add 6 uL Acceptor Mix, cover with aluminum foil, quickly spin at 1000 rpm, shake at 120 rpm for 2 min, then incubate at RT for 1 hr. • 8. Add 6 uL Donor Mix, cover with aluminum foil, quickly spin at 1000 rpm, shake at 120 rpm for 2 min, then incubate at RT for 1 hr. • 9. Measure the fluorescence using EnVision™ plate reader.

[6] = Dog LM (liver microsome) assay; assay type: in vitro ADME; details: predicted clearance as percent of liver blood flow
Method in brief: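 Pooled Beagle liver microsomes (1 mg/ml protein), compound 1 μM, Tris pH 7.6 with 5 mM MgCl2, 37 °C, started with 1 mM NADPH; parent loss by LC-MS/MS over several time points.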

[7] = molecular target: PDE4B (Homo sapiens (Human), UniProt Q07343); assay: PDE4B inhibition; assay type: biochemical
[8] = PBMC, read-out: IC50 IL-4, Table 3a
[9] = DH82, Table 3a, read-out: IC50 IL-31
[10] = Table 3a, 1 μM, 1 mg/ml microsomal protein
[11] = Table 3b, comparator compounds, read-out: IC50 IL-4

JAK2, sequence (O60674 whole entry, species assumed): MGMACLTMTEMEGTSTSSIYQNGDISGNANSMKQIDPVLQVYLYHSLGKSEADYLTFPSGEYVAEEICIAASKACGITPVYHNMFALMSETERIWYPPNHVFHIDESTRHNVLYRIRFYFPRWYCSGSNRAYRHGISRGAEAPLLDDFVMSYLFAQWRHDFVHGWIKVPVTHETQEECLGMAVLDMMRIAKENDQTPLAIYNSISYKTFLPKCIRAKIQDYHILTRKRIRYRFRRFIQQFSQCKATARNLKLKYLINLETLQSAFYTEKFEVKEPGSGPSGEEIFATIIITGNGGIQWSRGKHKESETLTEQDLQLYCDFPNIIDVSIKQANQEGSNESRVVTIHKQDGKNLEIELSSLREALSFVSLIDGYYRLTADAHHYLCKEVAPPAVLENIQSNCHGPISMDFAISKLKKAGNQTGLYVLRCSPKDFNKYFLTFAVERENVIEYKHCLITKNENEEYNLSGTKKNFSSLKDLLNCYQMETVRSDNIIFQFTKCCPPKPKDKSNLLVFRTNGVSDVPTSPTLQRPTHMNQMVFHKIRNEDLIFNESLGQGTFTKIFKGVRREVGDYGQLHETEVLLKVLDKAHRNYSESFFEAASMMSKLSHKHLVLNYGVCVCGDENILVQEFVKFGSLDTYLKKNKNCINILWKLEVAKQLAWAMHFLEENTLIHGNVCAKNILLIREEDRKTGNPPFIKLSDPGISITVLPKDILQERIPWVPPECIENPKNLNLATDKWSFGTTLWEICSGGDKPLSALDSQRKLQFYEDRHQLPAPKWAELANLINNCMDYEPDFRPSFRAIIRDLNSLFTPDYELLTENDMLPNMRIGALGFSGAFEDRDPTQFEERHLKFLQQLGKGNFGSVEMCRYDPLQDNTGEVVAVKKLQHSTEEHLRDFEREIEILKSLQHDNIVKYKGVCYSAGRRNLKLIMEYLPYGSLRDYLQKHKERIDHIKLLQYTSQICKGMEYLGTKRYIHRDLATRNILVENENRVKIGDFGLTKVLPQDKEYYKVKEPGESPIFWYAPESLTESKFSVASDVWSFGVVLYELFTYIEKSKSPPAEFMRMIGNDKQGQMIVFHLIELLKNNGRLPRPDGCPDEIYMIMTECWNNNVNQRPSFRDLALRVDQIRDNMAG
PDE4B, sequence (Q07343 whole entry, species assumed): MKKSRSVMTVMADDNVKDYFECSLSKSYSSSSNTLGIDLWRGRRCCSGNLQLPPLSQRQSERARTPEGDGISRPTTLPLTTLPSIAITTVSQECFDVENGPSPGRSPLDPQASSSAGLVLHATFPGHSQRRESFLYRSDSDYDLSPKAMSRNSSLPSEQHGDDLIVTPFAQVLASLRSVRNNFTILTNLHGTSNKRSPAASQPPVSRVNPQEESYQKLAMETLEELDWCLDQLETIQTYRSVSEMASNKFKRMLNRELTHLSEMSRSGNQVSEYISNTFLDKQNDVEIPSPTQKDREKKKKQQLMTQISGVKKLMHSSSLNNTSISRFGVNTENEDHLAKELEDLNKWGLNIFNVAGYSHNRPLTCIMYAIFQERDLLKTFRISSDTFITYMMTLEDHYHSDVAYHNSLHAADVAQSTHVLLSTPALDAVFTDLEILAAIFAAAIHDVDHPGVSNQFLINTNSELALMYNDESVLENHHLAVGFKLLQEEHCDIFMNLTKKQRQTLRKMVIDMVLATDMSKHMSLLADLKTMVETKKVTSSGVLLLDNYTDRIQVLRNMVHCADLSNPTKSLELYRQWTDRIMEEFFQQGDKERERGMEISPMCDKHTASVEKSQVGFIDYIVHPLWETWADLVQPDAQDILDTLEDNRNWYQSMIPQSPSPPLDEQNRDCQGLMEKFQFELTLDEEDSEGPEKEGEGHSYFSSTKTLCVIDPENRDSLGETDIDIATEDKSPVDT
JAK1, sequence (P23458 whole entry, species assumed): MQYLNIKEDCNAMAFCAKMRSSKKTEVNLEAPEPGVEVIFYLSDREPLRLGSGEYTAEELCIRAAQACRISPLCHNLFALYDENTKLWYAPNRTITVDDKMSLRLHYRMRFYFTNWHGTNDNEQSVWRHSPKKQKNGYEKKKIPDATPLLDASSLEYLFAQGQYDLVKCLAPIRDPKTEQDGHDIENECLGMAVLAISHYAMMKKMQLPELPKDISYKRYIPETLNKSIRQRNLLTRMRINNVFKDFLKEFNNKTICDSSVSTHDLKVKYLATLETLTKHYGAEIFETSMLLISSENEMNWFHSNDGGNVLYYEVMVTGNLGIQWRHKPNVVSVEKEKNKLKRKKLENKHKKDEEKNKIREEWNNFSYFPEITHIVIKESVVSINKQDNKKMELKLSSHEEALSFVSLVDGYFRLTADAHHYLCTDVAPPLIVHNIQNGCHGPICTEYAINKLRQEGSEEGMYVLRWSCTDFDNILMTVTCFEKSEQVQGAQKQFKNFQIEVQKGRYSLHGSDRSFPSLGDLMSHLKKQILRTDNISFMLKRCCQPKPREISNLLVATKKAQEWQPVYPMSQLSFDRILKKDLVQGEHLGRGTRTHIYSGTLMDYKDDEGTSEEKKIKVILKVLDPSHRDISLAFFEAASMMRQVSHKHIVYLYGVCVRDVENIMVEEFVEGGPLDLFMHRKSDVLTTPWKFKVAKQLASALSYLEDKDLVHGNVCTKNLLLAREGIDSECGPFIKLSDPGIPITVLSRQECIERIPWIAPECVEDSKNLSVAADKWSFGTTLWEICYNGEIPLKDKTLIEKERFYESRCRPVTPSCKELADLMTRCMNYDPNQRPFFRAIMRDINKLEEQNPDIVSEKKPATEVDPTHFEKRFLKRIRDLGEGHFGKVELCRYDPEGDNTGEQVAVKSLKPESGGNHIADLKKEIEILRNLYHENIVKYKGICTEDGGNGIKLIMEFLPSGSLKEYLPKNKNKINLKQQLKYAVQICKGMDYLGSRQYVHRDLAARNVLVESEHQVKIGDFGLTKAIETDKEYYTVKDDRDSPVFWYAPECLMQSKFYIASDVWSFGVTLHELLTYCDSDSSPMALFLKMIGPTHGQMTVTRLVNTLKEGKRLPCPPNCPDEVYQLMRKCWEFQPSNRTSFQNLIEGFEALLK

| Structure (SMILES) | IC50 ([1]; Table 3a) [µM] | IC50 ([2]; Table 3a) [µM] | IC50 [3, 8] [µM] | IC50 ([4]; Whole blood cell) [µM] | IC50 [5, 9] [µM] | Dog LM QH [6, 10] [%] | IC50 ([1]; Table 3b, comparator compounds) [µM] | IC50 ([2]; Table 3b, comparator compounds) [µM] | Inhibition PDE4B @ 1 μM ([7]; Table 3b, comparator compounds) [%] | IC50 [3, 11] [µM] | IC50 ([4]; Table 3b, comparator compounds) [µM] | Dog LM QH ([6]; Table 3b, comparator compounds) [%] | IC50 ([7]; Table 3b, comparator compounds) [µM] | IC50 ([5]; DH82, read-out: IC50 IL-31) [µM] | IC50 ([7]; Table 3a) [µM] |
| --- | --- | --- | --- | --- | --- | --- | --- | --- | --- | --- | --- | --- | --- | --- | --- |
| Cc1cnc(Nc2cc(Cl)c3c(c2)COB3O)nc1NC1CCCC1C#N (racemic) [Example 003, (trans)-2-((2-((7-chloro-1-hydroxy-1,3-dihydrobenzo[c][1,2]oxaborol-5-yl)amino)-5-methylpyrimidin-4-yl)amino)cyclopentane-1-carbonitrile] | 0.0007 | 0.04 | 0.106 | 1.43 | 0.0212 | <19.9 | – | – | – | – | – | – | – | – | – |
| CCC(CC)Nc1nc(Nc2cc(C)c3c(c2)COB3O)ncc1C [Example C004] | – | – | – | – | – | – | 0.0011 | 0.041 | 22 | 0.118 | > 10 | 34.5 | – | – | – |
| Cc1cc(Nc2ncc(Cl)c(NC3CCCC3)n2)cc2c1B(O)OC2 [Example C016] | – | – | – | – | – | – | 0.0021 | 0.663 | 30 | 0.688 | 0.927 | 54.5 | – | – | – |
| Cc1cnc(Nc2cc3c(c(C(F)(F)F)c2)B(O)OC3)nc1N[C@H]1COC[C@@H]1C#N (single isomer, unassigned) [Example 043a, (trans)-4-[[2-[[1-hydroxy-7-(trifluoromethyl)-3H-2,1-benzoxaborol-5-yl]amino]-5-methyl-pyrimidin-4-yl]amino]tetrahydrofuran-3-carbonitrile] | 0.0009 | 0.0237 | 0.267 | 4.14 | 0.0454 | <19.9 | – | – | – | – | – | – | – | – | – |
| OB1OCc2cc(Nc3ncc(Cl)c(NC4CCCC4)n3)ccc21 [Example C014] | – | – | – | – | – | – | 0.0033 | 0.179 | – | 0.782 | 5.35 | 78.5 | 0.0527 | – | – |
| Cc1cnc(Nc2cc(Cl)c3c(c2)COB3O)nc1N[C@@H]1CCC[C@H]1C#N (single isomer, unassigned) [Example 003a, (trans)-2-((2-((7-chloro-1-hydroxy-1,3-dihydrobenzo[c][1,2]oxaborol-5-yl)amino)-5-methylpyrimidin-4-yl)amino)cyclopentane-1-carbonitrile] | 0.0007 | 0.0037 | 0.0933 | 2.23 | 0.0092 | <19.9 | – | – | – | – | – | – | – | – | – |
| Cc1cnc(Nc2cc(Cl)c3c(c2)COB3O)nc1NC1CCCC1 [Example C007] | – | – | – | – | – | – | 0.0007 | 0.0318 | – | 0.3 | 3.74 | 52.1 | 0.113 | – | – |
| Cc1cnc(Nc2cc3c(c(C(F)(F)F)c2)B(O)OC3)nc1NC1CCCCC1C#N (racemic) [Example 011, (trans)-2-((2-((1-hydroxy-7-(trifluoromethyl)-1,3-dihydrobenzo[c][1,2]oxaborol-5-yl)amino)-5-methylpyrimidin-4-yl)amino)cyclohexane-1-carbonitrile] | 0.0009 | 0.0375 | 0.159 | 1.15 | 0.0336 | <19.9 | – | – | – | – | – | – | – | – | – |
| Cc1cnc(Nc2ccc3c(c2)C(C)(C)OB3O)nc1NC1CCCC1 [Example C009] | – | – | – | – | – | – | 0.0024 | 0.0839 | 40 | 0.218 | 4.22 | 83.4 | 0.761 | – | – |
| Cc1cnc(Nc2cc(Cl)c3c(c2)COB3O)nc1N[C@H]1CCCOC1 [Example 030b, (S)-7-chloro-5-((5-methyl-4-((tetrahydro-2H-pyran-3-yl)amino)pyrimidin-2-yl)amino)benzo[c][1,2]oxaborol-1(3H)-ol] | 0.0047 | 0.0919 | 0.193 | 4.48 | – | <19.9 | – | – | – | – | – | – | – | 0.0258 | – |
| N#C[C@@H]1CCOC[C@H]1Nc1nc(Nc2cc(Cl)c3c(c2)COB3O)ncc1C(F)(F)F (relative stereo) [Example 049, (trans)-3-((2-((7-chloro-1-hydroxy-1,3-dihydrobenzo[c][1,2]oxaborol-5-yl)amino)-5-(trifluoromethyl)pyrimidin-4-yl)amino)tetrahydro-2H-pyran-4-carbonitrile] | 0.0082 | 0.0133 | 0.173 | – | – | 39.7 | – | – | – | – | – | – | – | – | 0.362 |
| CCC(CC)Nc1nc(Nc2ccc3c(c2)COB3O)ncc1Cl [Example C005] | – | – | – | – | – | – | 0.0011 | 0.0333 | – | 6.12 | 2.25 | – | 0.379 | – | – |
| Cc1cnc(Nc2cc(C)c3c(c2)COB3O)nc1NC1CCCC1 [Example C008] | – | – | – | – | – | – | 0.0023 | 0.0593 | 37 | 0.973 | > 10 | 54.3 | – | – | – |
| CCC(CC)Nc1nc(Nc2cc(F)c3c(c2)COB3O)ncc1C [Example C003] | – | – | – | – | – | – | 0.0007 | 0.0437 | – | 0.125 | 1.16 | 41.0 | 0.212 | – | – |
| CCC(CC)Nc1nc(Nc2ccc3c(c2)COB3O)ncc1C [Example C001] | – | – | – | – | – | – | 0.0016 | 0.0602 | 90 | 0.115 | 1.72 | 73.8 | 0.0922 | – | – |
| Cc1cnc(Nc2ccc3c(c2)COB3O)nc1N[C@@H]1CCC[C@H]1C#N (relative stereo) [Example 001, (trans)-2-((2-((1-hydroxy-1,3-dihydrobenzo[c][1,2]oxaborol-5-yl)amino)-5-methylpyrimidin-4-yl)amino)cyclopentane-1-carbonitrile] | 0.0011 | 0.0247 | 0.173 | – | – | 39.7 | – | – | – | – | – | – | – | – | 0.362 |
| Cc1cnc(Nc2ccc3c(c2)COB3O)nc1NC1CCCCC1 [Example C011] | – | – | – | – | – | – | 0.0032 | 0.0329 | 13 | 2.49 | 7.7 | 83.5 | 0.242 | – | – |
| Cc1cnc(Nc2ccc3c(c2)COB3O)nc1NC1CCCC1 [Example C006] | – | – | – | – | – | – | 0.0065 | 0.154 | 86 | 0.293 | 0.27 | >86.6 | 0.114 | – | – |
